Assay results taken from patent publication US10036741B2, “Systems, models and methods for identifying and evaluating skin-active agents effective for treating an array of skin disorders” (The Procter & Gamble Company, priority 2012, dated 2018).

Assays:
[1] = tested on: unhealthy skin gene expression signature; test: Connectivity mapping (C-map) query of stored skin instances with the unhealthy skin gene expression signature; type: cell-based, human; settings: text statement on highest-ranked results of Table C
Description: Referring to FIG. 6 and FIG. 7, an exemplary method for querying instances with one or more gene expression signatures will now be described. Broadly, the method comprises querying a data architecture of stored instances (e.g., skin instances) with one or more gene signatures (e.g., an unhealthy skin gene expression signature), and applying a statistical method to determine how strongly the gene expression signature genes match the regulated genes in an instance.
The up-score and down-score have, for example, values between +1 and −1. […] In these embodiments, the gene expression signature comprises the combination of the up list and the down list. […]
The combination of the up-score and down-score is used to calculate an overall connectivity score for each instance, and in embodiments where up- and down-score ranges are set between −1 and +1, the connectivity score ranges from −2 to +2, and represents the strength of match between a query gene expression signature and the instance. The sign of the overall score is determined by whether the instance links positivity or negatively to the signature. […]

[2] = tested on: dandruff; test: Effect of ZPT-containing shampoo on the unhealthy skin gene expression signature in dandruff sufferers (Study 2); type: in vivo, human; settings: dandruff subjects, scalp biopsies, three weeks of treatment
Description: Hierarchical Cluster Analysis of Dandruff vs. Non-Dandruff (Study 1): Genome-wide transcriptional profiles of the dandruff condition and healthy scalp were assessed using RNA extracted from full thickness scalp biopsies. […] Each row in FIG. 9 represents a single probe set and each column represents the group average of all subjects (not a single microarray experiment).
Effect of zinc pyrithione (ZPT) on the Unhealthy Skin Gene Expression Signature in Dandruff Sufferers (Study 2): We examined the effect of ZPT on the transcriptomic profile in dandruff sufferers during a course of treatment known to resolve the key symptoms of the condition (flake and itch) and substantially restore the scalp skin histology and cell surface biomarker profile to a healthy state. In this study, we were able to replicate our key transcriptomic findings from Study 1 in a second study population. It is notable that using the expression levels of the same 400 probe sets in the unhealthy gene expression signature, which all satisfied the p<0.05 criterion, hierarchical cluster analysis again clearly separated Dandruff from Non-dandruff (see All Dandruff Baseline vs. Non-Dandruff Baseline). […] This underscores the fundamental importance of the gene products associated with this signature to skin homeostasis.

Row | Molecule | rank of instances in C-map query (linkage score) [1] | gene expression profile (400 probe sets of unhealthy skin signature), hierarchical cluster analysis [2]
1 | CC1=C(/C=C/C(C)=C/C=C/C(C)=C/C(=O)O)C(C)(C)CCC1 [All-trans retinoic acid] | strongest negative linkage scores | –
2 | NC(=O)c1cccnc1 [Nicotinamide] | strongest negative linkage scores | –
3 | zinc pyrithione [zinc pyriothione] | – | reversal of the unhealthy skin gene expression signature
